# Read-outs that look alike come from different tables or passages of the source.
# Experiments:
# [1] = test system: gram negative bacteria; test: In vitro anti-bacterial activity assay (broth dilution MIC), gram negative bacteria; type: cell-based, E. coli
# How it was run: (§1)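 Broth dilution MIC following CLSI M7-A2: compounds serially diluted, log-phase test strains added to final ~5×10^5 CFU/ml, incubated ~18 hours at 35° C in ambient air. Plates read on microplate reader or visually; MIC is lowest concentration inhibiting growth.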
# [2] = test system: CHO-K1 cells; test: in vitro; type: cell-based; conditions: Chinese hamster, 24 h
# [3] = test system: 3T3 fibroblast cells; test: In vitro phototoxicity assay (neutral red; UV light-treated vs dark control plates); type: cell-based; conditions: for Photo Toxicity UV Tox50: UV light 50 minutes; for Photo Toxicity Dark Tox50: dark control plate
# How it was run: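 Neutral red viability readout (A535 after EtOH/acetic acid extraction) compares paired plates: one exposed 50 min to UV at 1.6–1.8 mW/cm^2, one held in darkness, both dosed with compound in HBSS and recovered overnight. 3T3 fibroblast cells used; phototoxicity taken as the difference.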
# [4] = test system: gram positive bacteria; test: In vitro anti-bacterial activity assay (broth dilution MIC), gram positive bacteria; type: cell-based, S. aureus; conditions: for MIC: 18 h
# How it was run: as §1
# [5] = in vitro; type: cell-based; conditions: Chinese hamster, Cytotox. CHO-K1
# [6] = Mammalian cytotoxicity assay (resazurin), COS-1 cells; type: cell-based; conditions: African green monkey, read-out: Cytotox. COS-1
# How it was run: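 Cells seeded overnight at 37° C., 5% CO2, then exposed to serial compound dilutions for 24 hours. Medium replaced with resazurin (0.042 mg/ml in PBS with Ca and Mg) for 2 hours plus 30 minutes dark at room temperature; fluorescence read at ex 535/em 590 nm, IC50 taken as 50% growth inhibition.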
# [7] = Escherichia coli, 18 h, E. coli D1 209, read-out: Median MIC's G− E. coli D1 209
# [8] = Escherichia coli, 18 h, E. coli MG 1655, read-out: Median MIC's G− E. coli MG 1655
# [9] = Escherichia coli, ATCC25922, 18 h, E. coli ATCC 25922, read-out: Median MIC's G− E. coli ATCC 25922
# [10] = Pseudomonas aeruginosa, 18 h, P. aeruginosa K201 PAO6609, read-out: Median MIC's G− P. aeruginosa K201 PAO6609
# [11] = Staphylococcus aureus, S. aureus MRSA5, read-out: Median MIC's G+ S. aureus MRSA5
# [12] = Staphylococcus aureus, S. aureus RN450, read-out: Median MIC's G+ S. aureus RN450
# [13] = Streptococcus pneumoniae, S. pneumoniae 157E-Strep, read-out: Median MIC's G+ S. pneumoniae 157E-Strep
structure (smiles),measurement,setting,value
CN(C)CCCNC(=O)c1cccc(-c2ccc(O)c3c2C[C@H]2C[C@H]4[C@H](N(C)C)C(O)=C(C(N)=O)C(=O)[C@@]4(O)C(O)=C2C3=O)c1 [J],MIC,[1]; [7],64 µg/mL
same,MIC,[1]; [8],32 µg/mL
same,MIC,[1]; [9],32 µg/mL
same,MIC,[1]; [10],64 µg/mL
same,IC50,[2],> 40.3 µM
same,Photo Toxicity UV Tox50,[3],>130.13 µM
same,Photo Toxicity Dark Tox50,[3],>130.13 µM
same,MIC,[4]; [11],64 µg/mL
same,MIC,[4]; [12],1 µg/mL
same,MIC,[4]; [13],1 µg/mL
CN(C)[C@@H]1C(O)=C(C(N)=O)C(=O)[C@@]2(O)C(O)=C3C(=O)c4c(O)ccc(-c5cccc(C(=O)NCCN)c5)c4C[C@H]3C[C@@H]12 [N],MIC,[1]; [7],64 µg/mL
same,MIC,[1]; [8],64 µg/mL
same,MIC,[1]; [9],64 µg/mL
same,MIC,[1]; [10],64 µg/mL
same,IC50 at 24 h,[5],> 46.8 µM
same,IC50 at 24 h,[6],> 46.8 µM
same,Photo Toxicity UV Tox50,[3],95.14 µM
same,Photo Toxicity Dark Tox50,[3],>150.87 µM
same,MIC,[4]; [11],64 µg/mL
same,MIC,[4]; [12],2 µg/mL
same,MIC,[4]; [13],16 µg/mL
CCN(CC)CCNC(=O)c1cccc(-c2ccc(O)c3c2C[C@H]2C[C@H]4[C@@H](N(C)C)C(O)=C(C(N)=O)C(=O)[C@@]4(O)C(O)=C2C3=O)c1 [O],MIC,[1]; [7],64 µg/mL
same,MIC,[1]; [8],64 µg/mL
same,MIC,[1]; [9],64 µg/mL
same,MIC,[1]; [10],64 µg/mL
same,IC50 at 24 h,[5],> 135 µM
same,IC50 at 24 h,[6],> 135 µM
same,Photo Toxicity UV Tox50,[3],>134.63 µM
same,Photo Toxicity Dark Tox50,[3],>134.63 µM
same,MIC,[4]; [11],64 µg/mL
same,MIC,[4]; [12],4 µg/mL
same,MIC,[4]; [13],4 µg/mL
CN(C)CCCNC(=O)c1cccc(-c2ccc(O)c3c2C[C@H]2C[C@H]4[C@@H](N(C)C)C(O)=C(C(N)=O)C(=O)[C@@]4(O)C(O)=C2C3=O)c1 [P],MIC,[1]; [7],64 µg/mL
same,MIC,[1]; [8],64 µg/mL
same,MIC,[1]; [9],64 µg/mL
same,MIC,[1]; [10],64 µg/mL
same,IC50 at 24 h,[5],> 123 µM
same,IC50 at 24 h,[6],> 123 µM
same,Photo Toxicity UV Tox50,[3],>122.9 µM
same,Photo Toxicity Dark Tox50,[3],>122.9 µM
same,MIC,[4]; [11],64 µg/mL
same,MIC,[4]; [12],4 µg/mL
same,MIC,[4]; [13],8 µg/mL
CN(C)CCCNC(=O)c1cccc(-c2ccc(O)c3c2C[C@H]2C[C@H]4[C@H](N(C)C)C(O)=C(C(N)=O)C(=O)[C@@]4(O)C(O)=C2C3=O)c1 [Q],Median MIC's G− E. coli ATCC 25922,[1]; E. coli ATCC 25922,64 µg/mL
same,Median MIC's G− E. coli D1 209,[1]; E. coli D1 209,64 µg/mL
same,Median MIC's G− E. coli MG 1655,[1]; E. coli MG 1655,64 µg/mL
same,Median MIC's G− P. aeruginosa K201 PAO6609,[1]; P. aeruginosa K201 PAO6609,64 µg/mL
same,IC50,[2],> 137 µM
same,Photo Toxicity UV Tox50,[3],>137.36 µM
same,Photo Toxicity Dark Tox50,[3],>137.36 µM
same,Median MIC's G+ S. aureus MRSA5,[4]; S. aureus MRSA5,64 µg/mL
same,Median MIC's G+ S. aureus RN450,[4]; S. aureus RN450,2 µg/mL
same,Median MIC's G+ S. pneumoniae 157E-Strep,[4]; S. pneumoniae 157E-Strep,1 µg/mL
CN(C)CCN(C)C(=O)c1cccc(-c2ccc(O)c3c2C[C@H]2C[C@H]4[C@H](N(C)C)C(O)=C(C(N)=O)C(=O)[C@@]4(O)C(O)=C2C3=O)c1 [R],MIC,"[1]; Escherichia coli, 18 h, read-out: Median MIC's G− E. coli D1 209, E. coli D1 209",64 µg/mL
same,MIC,"[1]; Escherichia coli, 18 h, read-out: Median MIC's G− E. coli MG 1655, E. coli MG 1655",15 µg/mL
same,MIC,"[1]; Escherichia coli, ATCC25922, 18 h, read-out: Median MIC's G− E. coli ATCC 25922, E. coli ATCC 25922",32 µg/mL
same,MIC,"[1]; Pseudomonas aeruginosa, 18 h, read-out: Median MIC's G− P. aeruginosa K201 PAO6609, P. aeruginosa K201 PAO6609",64 µg/mL
same,IC50 at 24 h,[5],> 137 µM
same,IC50 at 24 h,[6],> 137 µM
same,Photo Toxicity UV Tox50,[3],>137.36 µM
same,Photo Toxicity Dark Tox50,[3],>137.36 µM
same,MIC,[4]; [11],64 µg/mL
same,MIC,[4]; [12],0.5 µg/mL
same,MIC,[4]; [13],0.25 µg/mL
CC(=O)NCCNC(=O)c1cccc(-c2ccc(O)c3c2C[C@H]2C[C@H]4[C@H](N(C)C)C(O)=C(C(N)=O)C(=O)[C@@]4(O)C(O)=C2C3=O)c1 [S],MIC,[1]; [7],64 µg/mL
same,MIC,[1]; [8],64 µg/mL
same,MIC,[1]; [9],64 µg/mL
same,MIC,[1]; [10],64 µg/mL
same,IC50 at 24 h,[5],> 13 µM
same,IC50 at 24 h,[6],> 13 µM
same,Photo Toxicity UV Tox50,[3],>129.75 µM
same,Photo Toxicity Dark Tox50,[3],>129.75 µM
same,MIC,[4]; [11],32 µg/mL
same,MIC,[4]; [12],2 µg/mL
same,MIC,[4]; [13],2 µg/mL
CC(C)N(CCNC(=O)c1cccc(-c2ccc(O)c3c2C[C@H]2C[C@H]4[C@H](N(C)C)C(O)=C(C(N)=O)C(=O)[C@@]4(O)C(O)=C2C3=O)c1)C(C)C [T],MIC,[1]; [7],8 µg/mL
same,MIC,[1]; [8],16 µg/mL
same,MIC,[1]; [9],4 µg/mL
same,MIC,[1]; [10],64 µg/mL
same,IC50 at 24 h,[5],36.2 µM
same,IC50 at 24 h,[6],> 41.4 µM
same,Photo Toxicity UV Tox50,[3],>133.57 µM
same,Photo Toxicity Dark Tox50,[3],>133.57 µM
same,MIC,[4]; [11],4 µg/mL
same,MIC,[4]; [12],0.13 µg/mL
same,MIC,[4]; [13],0.06 µg/mL
CN(C)[C@@H]1C(O)=C(C(N)=O)C(=O)[C@@]2(O)C(O)=C3C(=O)c4c(O)ccc(-c5cccc(C(=O)NCCN6CCCCC6)c5)c4C[C@H]3C[C@@H]12 [U],MIC,[1]; [7],8 µg/mL
same,MIC,[1]; [8],4 µg/mL
same,MIC,[1]; [9],4 µg/mL
same,MIC,[1]; [10],64 µg/mL
same,IC50 at 24 h,[5],> 41 µM
same,IC50 at 24 h,[6],> 41 µM
same,Photo Toxicity UV Tox50,[3],>132.37 µM
same,Photo Toxicity Dark Tox50,[3],>132.37 µM
same,MIC,[4]; [11],8 µg/mL
same,MIC,[4]; [12],0.25 µg/mL
same,MIC,[4]; [13],0.06 µg/mL
"CN(C)CCNC(=O)c1cccc(-c2cc(N(C)C)c3c(c2O)C(=O)C2=C(O)[C@]4(O)C(=O)C(C(N)=O)=C(O)[C@@H](N(C)C)[C@@H]4C[C@@H]2C3)c1 [V, (4S,4aS,5aR,12aS)-4,7-Bis-dimethylamino-9-[3-(2-dimethylamino-ethylcarbamoyl)-phenyl]-3,10,12,12a-tetrahydroxy-1,11-dioxo-1,4,4a,5,5a,6,11,12a-octahydro-naphthacene-2-carboxylic acid amide]",MIC,[1]; [7],64 µg/mL
same,MIC,[1]; [8],64 µg/mL
same,MIC,[1]; [9],64 µg/mL
same,MIC,[1]; [10],64 µg/mL
same,IC50 at 24 h,[5],> 125 µM
same,IC50 at 24 h,[6],> 125 µM
same,Photo Toxicity UV Tox50,[3],>125.47 µM
same,Photo Toxicity Dark Tox50,[3],>125.47 µM
same,MIC,[4]; [11],64 µg/mL
same,MIC,[4]; [12],16 µg/mL
same,MIC,[4]; [13],32 µg/mL
CN(C)[C@@H]1C(O)=C(C(N)=O)C(=O)[C@@]2(O)C(O)=C3C(=O)c4c(O)ccc(-c5cccc(C(=O)NCc6ccco6)c5)c4C[C@H]3C[C@@H]12 [Y],MIC,[1]; [7],64 µg/mL
same,MIC,[1]; [8],64 µg/mL
same,MIC,[1]; [9],64 µg/mL
same,MIC,[1]; [10],64 µg/mL
same,IC50 at 24 h,[5],> 14.6 µM
same,IC50 at 24 h,[6],> 14.6 µM
same,Photo Toxicity UV Tox50,[3],>146.13 µM
same,Photo Toxicity Dark Tox50,[3],>146.13 µM
same,MIC,[4]; [11],1 µg/mL
same,MIC,[4]; [12],0.06 µg/mL
same,MIC,[4]; [13],0.06 µg/mL
"CN(C)CCNC(=O)c1cccc(-c2ccc(O)c3c2C[C@H]2C[C@H]4CC(O)=C(C(N)=O)C(=O)[C@@]4(O)C(O)=C2C3=O)c1 [Z, (4aS,5aR,12aS)-7-[3-(2-Dimethylamino-ethylcarbamoyl)-phenyl]-3,10,12,12a-tetrahydroxy-1,11-dioxo-1,4,4a,5,5a,6,11,12a-octahydro-naphthacene-2-carboxylic acid amide]",MIC,[1]; [7],64 µg/mL
same,MIC,[1]; [8],64 µg/mL
same,MIC,[1]; [9],64 µg/mL
same,MIC,[1]; [10],64 µg/mL
same,IC50 at 24 h,[5],> 15.9 µM
same,IC50 at 24 h,[6],> 15.9 µM
same,Photo Toxicity UV Tox50,[3],>158.85 µM
same,Photo Toxicity Dark Tox50,[3],>158.85 µM
same,MIC,[4]; [11],64 µg/mL
same,MIC,[4]; [12],64 µg/mL
same,MIC,[4]; [13],64 µg/mL
